Entries after “also recorded” stand apart in the source; their conditions may differ. Like-named read-outs stand apart in the source and are kept apart here. *1 amine or outer side, *2 acyl side, *3 side chain or, on linkers, in order; H or OH if unused. Where a SMILES comes first, the peptide text is derived from it. Bridges are numbered along the chain shown (N, C = ends). [ ]: non-standard residue; d: D form. The star is where a group is joined. pTerphenylCO(4''-OnC5H11) = CCCCCOc1ccc(-c2ccc(-c3ccc(C(=O)*)cc3)cc2)cc1; Orn(4R-OH,5R-OH) = O=C([C@H](C[C@@H](O)[C@@H](O)N[*:3])N[*:1])[*:2]; hTyr(3S-OH,4S-OH) = N[C@H](C(=O)O)[C@H](O)[C@@H](O)c1ccc(O)cc1; Pro(3S-OH,4S-Me) = C[C@H]1CN[C@H](C(=O)O)[C@H]1O; Hyp = O=C(O)[C@@H]1C[C@@H](O)CN1
How the values were obtained:
[1] = test system: zebrafish embryos; details: for Mortality rate (MR) / Pericardial effusion (percentage of treated larvae): 1 µM; for Mortality rate (MR): average percentage of larvae that died before imaging; for Overall effect on embryonic development / cardiovascular system: screening concentration; for Overall effect on embryonic development: clinically relevant concentrations (Cmax); for Pericardial Effusion Rate(%): zebrafish, in vivo; for Effect on heart functionality: clinically relevant doses (Cmax)
[2] = test system: zebrafish larvae; experiment: Behavioral assay (bright/dark locomotion test, DanioVision); details: for Effect on swimming behavior: screening concentration 1 µM (Ivermectin 0.5 µM)
[3] = test system: inflammatory and immune response gene expression; format: in vivo, zebrafish (Danio rerio); details: for Inflammatory response related gene expression upon SARS-CoV-2 spike protein treatment: with spike protein; for Inflammatory gene response in the absence of spike protein: without spike protein, vs DMSO
[4] = read-out: Cmax (highest concentration detected in blood plasma), humans; cited from earlier work
[5] = with SARS-CoV-2 spike protein, drug 48 h

Compound: CCOC(=O)c1c(CSc2ccccc2)n(C)c2cc(Br)c(O)c(CN(C)C)c12 [Umifenovir]
- Effect on ISV area ([1]; 1 µM screening): mildly reduced

Compound: CN(C)C(=O)COC(=O)Cc1ccc(OC(=O)c2ccc(NC(=N)N)cc2)cc1 [Camostat]
- Effect on swimming behavior [2]: effect

Compound: Cc1cccc(/C=N/Nc2cc(N3CCOCC3)nc(OCCc3ccccn3)n2)c1 [Apilimod]
- Effect on swimming behavior [2]: effect
- Mortality rate (MR) [1]: over 10%

Compound: Nc1nc(Nc2ccc3c(c2)CC[C@@H](N2CCCC2)CC3)nn1-c1cc2c(nn1)-c1ccccc1CCC2 [Bemcentinib]
- Effect on swimming behavior [2]: effect

Compound: NC(=O)c1nc(F)c[nH]c1=O [Favipiravir]
- Effect on body length ([1]; 1 µM screening): mild effect

Compound: C[C@@H](c1nc(-c2ccc(C#N)cc2)cs1)[C@](O)(Cn1cncn1)c1ccc(F)cc1F [Ravuconazole]
- Effect on swimming behavior [2]: effect

Compound: CCN(CCO)CCCC(C)Nc1ccnc2cc(Cl)ccc12 (stereo not drawn) [Hydroxychloroquine]
- Effect on ISV area ([1]; 1 µM screening): significant reductions
- Effect on ejection fraction ([1]; 1 µM screening): significant reductions
- Overall effect on embryonic development / cardiovascular system [1]: mild defects on the cardiovascular system

Compound: CC(C)C[C@H](NC(=O)[C@@H](NC(=O)c1cccc(-c2ccccc2)n1)[C@@H](C)O)B(O)O [Delanzomib]
- Effect on swimming behavior [2]: effect

Compound: COc1ccc(CCN2CCC(Nc3nc4ccccc4n3Cc3ccc(F)cc3)CC2)cc1 [Astemizole]
- Pericardial effusion (percentage of treated larvae) [1]: 94.4%
- Effect on ISV area ([1]; 1 µM screening): negative effects
- Effect on body length ([1]; 1 µM screening): highest reduction
- Mortality rate (MR) [1]: over 10%

Compound: S=C(NCc1ccc2c(c1)OCO2)N1CCN(c2ncnc3c2oc2ccccc23)CC1 [Amuvatinib]
- Effect on swimming behavior [2]: effect

Compound: CC(C)c1nc(CN(C)C(=O)N[C@H](C(=O)N[C@@H](Cc2ccccc2)C[C@H](O)[C@H](Cc2ccccc2)NC(=O)OCc2cncs2)C(C)C)cs1 [Ritonavir]
- Inflammatory response related gene expression upon SARS-CoV-2 spike protein treatment [3]: counteracted
- Inflammatory gene response in the absence of spike protein [3]: alter the inflammatory gene response
- Effect on ejection fraction ([1]; at Cmax): altered
- Effect on heart rate ([1]; at Cmax): altered
- Overall effect on embryonic development [1]: overall little embryonic alterations
- Pericardial Effusion Rate(%) [1]: 8.70%
- Cmax [4]: 15200 nM

Compound: CCCCCOc1ccc(-c2ccc(-c3ccc(C(=O)N[C@H]4C[C@@H](O)[C@@H](O)NC(=O)[C@@H]5[C@@H](O)[C@@H](C)CN5C(=O)[C@H]([C@@H](C)O)NC(=O)[C@H]([C@H](O)[C@@H](O)c5ccc(O)cc5)NC(=O)[C@@H]5C[C@@H](O)CN5C(=O)[C@H]([C@@H](C)O)NC4=O)cc3)cc2)cc1 [Anidulafungin] ({pTerphenylCO(4''-OnC5H11)}-[Orn(4R-OH,5R-OH)]T[Hyp][hTyr(3S-OH,4S-OH)]T[Pro(3S-OH,4S-Me)]; lactam 1-C)
- Effect on swimming behavior [2]: effect

Compound: CC(C)C(=O)OC[C@H]1O[C@@H](n2ccc(NO)nc2=O)[C@H](O)[C@@H]1O [Molnupiravir]
- ccl20a.3 levels [3, 5]: significantly reduced
- il4 expression [3, 5]: successfully downregulated
- ptg expression [3, 5]: upregulated to control levels
- Inflammatory response related gene expression upon SARS-CoV-2 spike protein treatment [3]: counteracted
- Inflammatory gene response in the absence of spike protein [3]: alter the inflammatory gene response
- Overall effect on embryonic development [1]: severe adverse effects
- Pericardial Effusion Rate(%) [1]: 0.00%
- Cmax [4]: 40 nM

Compound: COc1ccc2cc1Oc1ccc(cc1)C[C@H]1c3cc(c(OC)cc3CCN1C)Oc1c(O)c(OC)cc3c1[C@H](C2)N(C)CC3 [Hanfangchin B]
- Effect on swimming behavior [2]: effect

Compound: Cc1cccc(C)c1OCC(=O)N[C@@H](Cc1ccccc1)[C@@H](O)C[C@H](Cc1ccccc1)NC(=O)[C@H](C(C)C)N1CCCNC1=O [Lopinavir]
- Effect on ejection fraction ([1]; 1 µM screening): reduced

Compound: 17α-Hydroxyprogesterone
- Effect on body length ([1]; 1 µM screening): larval overgrowth

Compound: Cc1ccc(C(=O)Nc2ccc(CN3CCN(C)CC3)c(C(F)(F)F)c2)cc1C#Cc1cnc2cccnn12 [Ponatinib]
- Effect on swimming behavior [2]: effect
- Pericardial effusion (percentage of treated larvae) [1]: 100%
- Effect on body length ([1]; 1 µM screening): highest reduction

Compound: COC(=O)C1=C(C)NC(C)=C(C(=O)OCCN2CCN(C(c3ccccc3)c3ccccc3)CC2)C1c1cccc([N+](=O)[O-])c1 (stereo not drawn) [Manidipine]
- Mortality rate (MR) [1]: over 10%

Compound: Ivermectin
- Effects on larval behavior ([2]; 0.5 µM): still observed effects
- Effect on swimming behavior [2]: most severe effects
- Mortality ([1]; 0.5 µM): mortality disappeared
- Effect on body length ([1]; 1 µM screening): highest reduction
- Mortality rate (MR) [1]: over 10%
- Overall effect on embryonic development / cardiovascular system [1]: severely affected embryonic development

Compound: CNC(=O)c1cc(Oc2ccc(NC(=O)Nc3ccc(Cl)c(C(F)(F)F)c3)c(F)c2)ccn1 [Regorafenib]
- Effect on ISV formation ([1]; 1 µM screening): strong inhibition

Compound: CNC(=O)c1cc(Oc2ccc(NC(=O)Nc3ccc(Cl)c(C(F)(F)F)c3)cc2)ccn1 [Sorafenib]
- Effect on ISV formation ([1]; 1 µM screening): strong inhibition

Compound: CO[C@@H]1[C@H](N(C)C(=O)c2ccccc2)C[C@H]2O[C@]1(C)n1c3ccccc3c3c4c(c5c6ccccc6n2c5c31)C(=O)NC4 [Midostaurin]
- Mortality rate (MR) [1]: over 10%

Compound: NC(=O)c1ncn([C@@H]2O[C@H](CO)[C@@H](O)[C@H]2O)n1 [Ribavirin]
- Effect on ISV area ([1]; 1 µM screening): mildly reduced

Compound: C=CC[C@@H]1/C=C(\C)C[C@H](C)C[C@H](OC)[C@H]2O[C@@](O)(C(=O)C(=O)N3CCCC[C@H]3C(=O)O[C@H](/C(C)=C/[C@@H]3CC[C@@H](O)[C@H](OC)C3)[C@H](C)[C@@H](O)CC1=O)[C@H](C)C[C@@H]2OC [Tacrolimus]
- Effect on ejection fraction ([1]; 1 µM screening): increase

Compound: O=c1[nH]c2ccccc2n1C1CCN(CCCC(c2ccc(F)cc2)c2ccc(F)cc2)CC1 [Pimozide]
- Pericardial effusion (percentage of treated larvae) [1]: 100%
- Effect on ISV area ([1]; 1 µM screening): negative effects
- Effect on body length ([1]; 1 µM screening): highest reduction
- Mortality rate (MR) [1]: over 10%

Compound: CCS(=O)(=O)N1CC(CC#N)(n2cc(-c3ncnc4[nH]ccc34)cn2)C1 [Baricitinib]
- ccl20a.3 levels [3, 5]: significantly reduced
- Inflammatory response related gene expression upon SARS-CoV-2 spike protein treatment [3]: counteracted
- Inflammatory gene response in the absence of spike protein [3]: alter the inflammatory gene response
- Effect on motility / swimming behavior / embryo activity ([2]; at Cmax): effects on embryo activity; also recorded: alterations; also recorded: affected
- Mean Mortality(%) ([1]; at Cmax, mean of morphological and behavioral assay): 18.3%
- Effect on heart functionality [1]: reduced heart functionality
- Pericardial Effusion Rate(%) [1]: 9.30%
- Cmax [4]: 144 nM

Compound: COc1cc2nccc(Oc3ccc(NC(=O)C4(C(=O)Nc5ccc(F)cc5)CC4)cc3)c2cc1OC [Cabozantinib]
- Effect on swimming behavior [2]: effect
- Effect on ISV formation ([1]; 1 µM screening): strong inhibition

Compound: O=C(Nc1ccc([N+](=O)[O-])cc1Cl)c1cc(Cl)ccc1O [Niclosamide]
- Mortality rate (MR) [1]: over 10%

Compound: O=C(Nc1cc(Cl)cc(Cl)c1O)c1c(O)c(Cl)cc(Cl)c1Cl [Oxyclozanide]
- Effect on swimming behavior [2]: effect

Compound: CCC(CC)COC(=O)[C@H](C)N[P@](=O)(OC[C@H]1O[C@@](C#N)(c2ccc3c(N)ncnn23)[C@H](O)[C@@H]1O)Oc1ccccc1 [Remdesivir]
- ptg expression [3, 5]: upregulated to control levels
- Inflammatory response related gene expression upon SARS-CoV-2 spike protein treatment [3]: counteracted
- Inflammatory gene response in the absence of spike protein [3]: broadest effect; also recorded: alter the inflammatory gene response
- Effect on ejection fraction ([1]; at Cmax): decrease
- Effect on heart rate ([1]; at Cmax): decrease
- Overall effect on embryonic development [1]: severe adverse effects
- Effect on heart functionality [1]: reduced
- Pericardial Effusion Rate(%) [1]: 7.69%
- Cmax [4]: 4500 nM
